Data published in patent US6903104B2, “Indol-3-YL-2-oxoacetamide compounds and methods of use thereof” (National Health Research Institutes, priority 2001, dated 2005).

Key:
[1] = system: hepatocellular HEP G2 cancer cells; assay: In vitro cytotoxicity MTS assay, hepatocellular HEP G2; format: cell-based, human; settings: 72 hours
Protocol: (§1) A panel of human cancer cells, gastric NUGC3 and HR, nasopharyngeal HONE1, hepatocellular HEP G2 and HA-22T, colorectal DLD1, lung A549, prostate PC3, breast MCF7 and its adriamycin-resistant MCF7/ADR subline, uterus MES-SA and its adriamycin-resistant MES-SA/Dx5 subline, is purchased from Food Industry Research and Development Institute, Hsinchu, Taiwan R.O.C. or American Type Culture Collection, Manassas, Va. U.S.A., are used in in vitro cytotoxicity assays. The human cells are seeded at a cell density of 3000 or 4500 cells/100 μl/well in 96-well flat-bottom plates and incubated for 24 hours at 37° C. in a 5% CO2 incubator. The testing compounds are dissolved in dimethyl sulfoxide (DMSO) and further diluted into the culture medium for treatments of human cancer cells in vitro. The drug-containing media has a final DMSO concentration of ≦0.3%. The compounds of this invention are prepared in culture media for testing at a range of concentrations from 10, 1, 0.1, 0.01 to 0.001 μM. Each compound solution is (200 μl/well in duplicate) in the cell plates and is treated for 72 hours at 37° C., 5% CO2 in an incubator. Actinomycin D at 5 μM and 0.3% DMSO are used as the positive and vehicle controls, respectively. A colorimetric assay using 3-(4,5-dimethylthiazol-2-yl)-5-(3-carboxymethoxyphenyl)-2-(4-sulfophenyl)-2H-tetrazolium (MTS) and phenazine methosulfate (PMS) is used to determine the potency of the compounds. This assay measures cell viability based on the cellular activity in conversion of a tetrazolium salt into a colored soluble formazan product. The optical density (OD) values are measured at 490 nm with a 1420 multilabel counter VICTOR® from Wallac, Turku, Finland. All of the measured values are subtracted with that of the blank control wells without cells before further calculations. The efficacy data are expressed as a percentage normalized to the vehicle controls as calculated in the following formulae. Inhibitory potency (% of vehicle control)=[(OD490compound−OD490blank)/(OD490vehicle−OD490blank)]×100%. The concentration (IC50) of a test compound that inhibits 50% of the cellular activity is determined.

[2] = system: adriamycin-resistant MES-SA/Dx5 subline; assay: In vitro cytotoxicity MTS assay, adriamycin-resistant MES-SA/Dx5; format: cell-based, human; settings: 72 hours
Protocol: as §1

[3] = system: prostate PC3 cancer cells; assay: In vitro cytotoxicity MTS assay, prostate PC3; format: cell-based, human; settings: 72 hours
Protocol: as §1

[4] = system: rat aorta endothelial cells; assay: Rat aorta tube formation assay (angiogenesis inhibition); format: cell-based, Spraque-Dawley rats; design: key: Noninhibitors are indicated by the symbol (−), meaning that the extent of endothelial cell growth is essentially at the same level as that of the control; The most potent inhibitors receive a score of (+++++), indicating essentially no measurable endothelial cell growth; settings: final conc. 0.3 μg/ml, 5 days
Protocol: The procedures are modified from previous reports (Burbridge and West 2001; Bauer et al. 2000; Nicosai and Ottinetti 1990a) and described as follows. Male Spraque-Dawley rats of 6-8 weeks old are purchased from the National Laboratory Animal Breeding and Research Center (Taipei, Taiwan). The animals are anesthetized with urethane (2 g/kg, intraperitoneal) and the thoracic aortas are quickly harvested in a laminar flow hood. The aortas are rinsed with ice-cold normal saline with 10 μg/ml gentamicin and the attached fibroadipose tissues are removed using micro-dissection scissors. The aortas are cross-sectioned into rings of 1 mm in thickness. A mixture of Matrigel®, purchased from BD Biosciences, solution and the EBM-II medium, purchased from BioWhittaker Inc., (1:1) with 2% FBS, 0.25 mg/ml, amphotericin B and 10 μg/ml gentamicin is prepared and added at 100 μl to each well of a 48-well plate. The mixture is allowed to gel at 37° C. Aorta rings are then placed onto the gelled matrix and embedded in an additional 150 μl per well of the mixture solution and allowed to gel at 37° C. The aorta rings are then covered with 125 μl of the EGM-II medium and incubated overnight in humidified incubator with 5% CO2/95% air at 37° C. After removal of the EGM-II from the established aorta cultures, the compound-containing media are applied at 300 μl per well to the cultures and then incubated in 5% CO2/95% air at 37° C. for 5 days. The cultures are then subject to the 3-[4,5-dimethylthiazol-2-yl]-2,5 diphenyl-2H-tetrazolium bromide (MTT) or 3-(4,5-dimethylthiazol-2-yl)-5-(3-carbomethoxyphenyl)-2H-tetrazolium (MTS) assay and OD490 nm values measured. The testing compounds are dissolved in dimethyl sulfoxide (DMSO) and prepared in EBM-II media with at a final concentration of DMSO less than 0.1%.
The capillary-like, tube structure of the outgrown rat aorta endothelial cells is easily visualized by MTT staining. The medium on top of the matrix is removed from the established aorta ring cultures. MTT solution of 5 mg/ml in saline is added to the cultures at 100 μl/well and the cultures are incubated in a CO2 incubator at 37° C. for 24 hr. The stained cultures are then examined under a microscope DMIRB from Leica and photos taken with a digital camera.
Inhibition activity is also assessed in the following manner. The reductive reaction of MTS initiated by the viable cellular mitochondrial activity is used as a basis for the measurement of cell viability (Cory et al. 1991; Gieni et al. 1995). To the rat aorta ring cultures 300 μl of a solution containing 100 μg MTS and 1 μg, phenazine methosulfate is added per well and incubated in 5% CO2/95% air at 37° C. for 24 hr. During the incubation, MTS is converted to formazan product. At the end of incubation, the solution overlaying the gel is well-mixed and 100 μl aliquots are transferred into a 96-well plate for measurement of OD490 nm with a spectrophotometer VICTOR™-II from Wallac Oy.
The compounds listed in Table 3 are screened for angiogenesis inhibition. The control compound, ASTA, is D-24851, N-[pyridin-4-yl]-[1-(4-chlorobenzyl)-indol-3-yl]-glyoxylic acid amide. Noninhibitors are indicated by the symbol (−), meaning that the extent of endothelial cell growth is essentially at the same level as that of the control.

lung A549 cancer cells = assay: In vitro cytotoxicity MTS assay, lung A549; format: cell-based, human; settings: 72 hours
Protocol: as §1

[5] = system: gastric NUGC3 cancer cells; assay: In vitro cytotoxicity MTS assay, gastric NUGC3; format: cell-based, human; settings: 72 hours
Protocol: as §1

[6] = system: adriamycin-resistant MCF7/ADR subline; assay: In vitro cytotoxicity MTS assay, adriamycin-resistant MCF7/ADR; format: cell-based, human; settings: 72 hours
Protocol: as §1

[7] = system: colorectal DLD1 cancer cells; assay: In vitro cytotoxicity MTS assay, colorectal DLD1; format: cell-based, human; settings: 72 hours
Protocol: as §1

[8] = system: hepatocellular HA-22T cancer cells; assay: In vitro cytotoxicity MTS assay, hepatocellular HA-22T; format: cell-based, human; settings: 72 hours
Protocol: as §1

gastric HR cancer cells = assay: In vitro cytotoxicity MTS assay, gastric HR; format: cell-based, human; settings: 72 hours
Protocol: as §1

breast MCF7 cancer cells = assay: In vitro cytotoxicity MTS assay, breast MCF7; format: cell-based, human; settings: 72 hours
Protocol: as §1

[9] = system: uterus MES-SA cancer cells; assay: In vitro cytotoxicity MTS assay, uterus MES-SA; format: cell-based, human; settings: 72 hours
Protocol: as §1

[10] = system: nasopharyngeal HONE1 cancer cells; assay: In vitro cytotoxicity MTS assay, nasopharyngeal HONE1; format: cell-based, human; settings: 72 hours
Protocol: as §1

Structure (SMILES) | IC50 [1] | IC50 [2] | IC50 [3] | Inhibition Score [4] | IC50 (lung A549 cancer cells) | IC50 [5] | IC50 [6] | IC50 [7] | IC50 [8] | IC50 (gastric HR cancer cells) | IC50 (breast MCF7 cancer cells) | IC50 [9] | IC50 [10]
Cc1cc(NC(=O)C(=O)c2cn(Cc3ccno3)c3ccccc23)sn1 [Compound 54] | > 10000 nM | 333 nM | 725 nM | +++++ | 1670 nM | 27 nM | 5410 nM | 397 nM | 382 nM | 64 nM | 5020 nM | 268 nM | 17 nM
N#Cc1ccc(Cn2cc(C(=O)C(=O)Nc3ccc4ncccc4c3)c3ccccc32)cc1 [Compound 3] | 383 nM | 6090 nM | 9630 nM | +++++ | 6400 nM | 279 nM | 665 nM | 665 nM | 510 nM | 266 nM | 640 nM | 4710 nM | 174 nM
Cc1cc(NC(=O)C(=O)c2cn(Cc3ccsc3)c3ccccc23)sn1 [Compound 45] | 1690 nM | 406 nM | 824 nM | +++++ | 611 nM | 465 nM | 2350 nM | 593 nM | 2400 nM | 316 nM | 611 nM | 306 nM | 48 nM
Cc1cc(NC(=O)C(=O)c2cn(Cc3ccco3)c3ccccc23)sn1 [Compound 40] | 7720 nM | 263 nM | 398 nM | +++++ | 746 nM | 395 nM | 1170 nM | 981 nM | 1260 nM | 295 nM | 1160 nM | 235 nM | 56 nM
CCc1cc(Cn2cc(C(=O)C(=O)Nc3cc(C)ns3)c3ccccc32)on1 [Compound 63] | 2470 nM | 330 nM | 636 nM | +++++ | 1000 nM | 118 nM | 5070 nM | 705 nM | 559 nM | 78 nM | 747 nM | 312 nM | 35 nM
Cc1cc(NC(=O)C(=O)c2cn(Cc3cc(C(C)C)no3)c3ccccc23)sn1 [Compound 65] | 720 nM | – | – | +++++ | – | 242 nM | 710 nM | 609 nM | 302 nM | 324 nM | 700 nM | – | 50 nM
